Results on 1 molecule are retold here after patent US9765029B2, “Pyridine compounds as sodium channel blockers” (Purdue Pharma L.P., priority 2010, dated 2017).

The test relates to FCA-induced inflammation of the rat hind paw. Nature of the test: Freund's complete adjuvant (FCA) model of inflammatory pain, paw withdrawal threshold (PWT). The class given is in vivo. The method, then:
Test Animals: Each experiment uses rats weighing between 200-260 g at the start of the experiment. The rats are group-housed and have free access to food and water at all times, except prior to oral administration of a test compound when food is removed for 16 hours before dosing. A control group acts as a comparison to rats treated with a compound of Formulae I-XIII. The control group is administered the carrier as used for the test compound. The volume of carrier administered to the control group is the same as the volume of carrier and test compound administered to the test group.
To assess the actions of the compounds of Formulae I-XIII on the treatment of inflammatory pain the Freund's complete adjuvant (“FCA”) model of inflammatory pain was used. […] 24 hour post injection, the animal was assessed for response to noxious mechanical stimuli by determining the paw withdrawal threshold (PWT), or to noxious thermal stimuli by determining the paw withdrawal latency (PWL), as described below. […] Responses to noxious mechanical or thermal stimuli were determined 1, 3, and 5 hours post administration (admin). […]
Sensitivity to noxious mechanical stimuli can be measured in animals using the paw pressure test to assess mechanical hyperalgesia. […] PWT is determined once for each rat at each time point. PWT can be measured only in the injured paw, or in both the injured and non-injured paw. […]

Molecules are shown by their SMILES.

As for `NC(=O)[C@H](CO)NC(=O)c1cccc(-c2ccc(Oc3ccc(F)cc3)cc2)n1` [Compound 47, 6-[4-(4-fluoro-phenoxy)-phenyl]-pyridine-2-carboxylic acid ((S)-1-carbamoyl-2-hydroxy-ethyl)-amide], the “increase in PWT” value reads like this: (10 mg/kg oral (PO), 3 h) “statistically significant increase”; (30 mg/kg oral (PO), 1, 3 and 5 h) “statistically significant increase”.
